For nine compounds, GI50 results are on record in US20240262815A1, “HETEROARYL DERIVATIVE, METHOD FOR PREPARING SAME, AND PHARMACEUTICAL COMPOSITION COMPRISING SAME AS ACTIVE INGREDIENT” (VORONOI INC., priority 2021, published 2024).

This assay concerns SK-BR-3 cancer cells. Description: Inhibitory activity against proliferation of SK-BR-3 cancer cells (CellTiter-Glo). It counts as cell-based. The note with it: Homo sapiens, SK-BR-3, 120 h, ErbB2-overexpressing SK-BR-3 cells, 120 hours after treatment. In a few lines: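 Cells seeded 48 h before dosing (SK-BR-3 in McCOY'S 5A + 10% FBS; BT-474 in RPMI-1640 + 20% FBS), then exposed 120 h to 12 concentrations, 0.2 nM-5 μM final. Viability by CellTiter-Glo luminescence; GI50 from growth rate vs control, triplicate runs.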
In general terms: Cellular ATP, detected with luciferase, serves as a proxy for viable cell number.

Bounds are passed on as bounds.

Turning to `C=CC(=O)Nc1cc(Nc2cc(N3OCCC3c3cc(F)cc(OCc4nccs4)c3)ncn2)c(OC)cc1N1CCN(C)CC1` (stereo not drawn) [Example compound 132, N-(5-((6-(3-(3-fluoro-5-(thiazol-2-ylmethoxy)phenyl)isoxazolidin-2-yl)pyrimidin-4-yl)amino)-4-methoxy-2-(4-methylpiperazin-1-yl)phenyl)acrylamide], the GI50 (in general, the concentration that inhibits growth by half) is below 50 nM.

For `C=CC(=O)Nc1cc(Nc2cc(N3OCC[C@@H]3c3cc(F)cc(-c4ccco4)c3)ncn2)c(OC)cc1N1CCN(C)CC1` [Example compound 133, (R)-N-(5-((6-(3-(3-fluoro-5-(furan-2-yl)phenyl)isoxazolidin-2-yl)pyrimidin-4-yl)amino)-4-methoxy-2-(4-methylpiperazin-1-yl)phenyl)acrylamide], the GI50 was below 50 nM.

Take `C=CC(=O)Nc1cc(Nc2cc(N3OCC[C@@H]3c3cc(F)cc(-c4ccco4)c3)ncn2)c(OC)cc1N1CCC(N2CCN(C3CC3)CC2)CC1` [Example compound 134, (R)-N-(2-(4-(4-cyclopropylpiperazin-1-yl)piperidin-1-yl)-5-((6-(3-(3-fluoro-5-(furan-2-yl)phenyl)isoxazolidin-2-yl)pyrimidin-4-yl)amino)-4-methoxyphenyl)acrylamide]: the GI50 was below 50 nM.

Regarding `C=CC(=O)Nc1cc(Nc2cc(N3OCCC3c3cccc(C#Cc4ccccc4)c3)ncn2)c(OC)cc1N1CCN(C)CC1` (stereo not drawn) [Example compound 137, N-(4-methoxy-2-(4-methylpiperazin-1-yl)-5-((6-(3-(3-(phenylethynyl)phenyl)isoxazolidin-2-yl)pyrimidin-4-yl)amino)phenyl)acrylamide], the GI50 fell in the range of 50 to 500 nM.

Take `C=CC(=O)Nc1cc(Nc2cc(N3OCCC3c3cccc(C#Cc4ccccc4)c3)ncn2)c(OC)cc1N1CCC(N2CCN(C3CC3)CC2)CC1` (stereo not drawn) [Example compound 138, N-(2-(4-(4-cyclopropylpiperazin-1-yl)piperidin-1-yl)-4-methoxy-5-((6-(3-(3-(phenylethynyl)phenyl)isoxazolidin-2-yl)pyrimidin-4-yl)amino)phenyl)acrylamide]: the GI50 was 50 to 500 nM.

Consider `C=CC(=O)Nc1cc(Nc2cc(N3OCCC3c3cccc(C#CC(C)(C)C)c3)ncn2)c(OC)cc1N1CCN(C)CC1` (stereo not drawn) [Example compound 139, N-(5-((6-(3-(3-(3,3-dimethylbut-1-yn-1-yl)phenyl)isoxazolidin-2-yl)pyrimidin-4-yl)amino)-4-methoxy-2-(4-methylpiperazin-1-yl)phenyl)acrylamide], for which the GI50 is 50 to 500 nM.

In the case of `C=CC(=O)Nc1cc(Nc2cc(N3OCCC3c3cccc(C#CC(C)(C)C)c3)ncn2)c(OC)cc1N1CCC(N2CCN(C3CC3)CC2)CC1` (stereo not drawn) [Example compound 140, N-(2-(4-(4-cyclopropylpiperazin-1-yl)piperidin-1-yl)-5-((6-(3-(3-(3,3-dimethylbut-1-yn-1-yl)phenyl)isoxazolidin-2-yl)pyrimidin-4-yl)amino)-4-methoxyphenyl)acrylamide], the GI50 fell in the range of 50 to 500 nM.

For the compound `C=CC(=O)Nc1cc(Nc2cc(N3OCC[C@@H]3c3ccc(F)c(Oc4cccc(F)c4)c3)ncn2)c(OC)cc1N1CCC(N2CCN(C3CC3)CC2)CC1` [Example compound 152, (R)-N-(2-(4-(4-cyclopropylpiperazin-1-yl)piperidin-1-yl)-5-((6-(3-(4-fluoro-3-(3-fluorophenoxy)phenyl)isoxazolidin-2-yl)pyrimidin-4-yl)amino)-4-methoxyphenyl)acrylamide], the GI50 was below 50 nM.

On to `C=CC(=O)Nc1cc(Nc2cc(N3OCC[C@@H]3c3ccc(F)c(Oc4cccc(F)c4)c3)ncn2)c(OC)cc1N1CCN(C)CC1` [Example compound 153, (R)-N-(5-((6-(3-(4-fluoro-3-(3-fluorophenoxy)phenyl)isoxazolidin-2-yl)pyrimidin-4-yl)amino)-4-methoxy-2-(4-methylpiperazin-1-yl)phenyl)acrylamide], for which the GI50 is 50 to 500 nM.
